Earlier results on three molecules are cited in patent EP3581172B1, “A PHARMACEUTICAL COMPOSITION WITH ENHANCED BIOAVAILABILITY CONTAINING A MEDICAL HERBAL EXTRACT” (TFLL Pharmaceutical Food Supplements and Cosmetic Products …, priority 2018, dated 2019).

Series [1] relates to esophageal carcinogenesis. Conditions: rats, by diet (500 ppm).
For series [2], the system named is adenoma. The conditions noted are these: rats.
In series [3] the test system is breast cancer. Conditions: topical curcumin ointment; 7 breast cancer patients.
Series [4] concerns colon cancer stimulated by 1,2-dimethylhydrazine (DMH).
For series [5], the system named is HCT116 cells.

Each structure is given as a SMILES string. Where two headings read alike, the source gives them in different places.

As for `COc1cc(/C=C/C(=O)CC(=O)/C=C/c2ccc(O)c(OC)c2)ccc1O` [curcumin, (1E,6E)-1,7-bis (4-hydroxy-3-methoxyphenyl)-1,6-heptadiene-3,5-dione], the water solubility entry was “almost negligible”. In addition, in series [1] (maintenance dose), the esophageal carcinogenesis inhibited is 33%. In addition, the esophageal carcinogenesis inhibited in series [1] (onset dose) is listed as 27%. In series [2] (by diet 0.2% for 15 weeks), the decrease in adenoma is given as 39%. Also, in series [2] (by diet 0.5% for 15 weeks), the decrease in adenoma is on record as 40%. In series [3], the “positive responses (significant reduction in lesion size, pain, itching and leaks), share of patients” value is listed as 71%.
`COc1cc(CCC(=O)CC(=O)CCc2ccc(O)c(OC)c2)ccc1O` [THC, tetrahydrokurkuminin]: in series [4], the “effect on upper and lower half sections of colon crypts” value is reported as “significant decrease”.
Consider `COc1ccc(/C=C/C(=O)CC(=O)/C=C/c2ccc(OC)c(OC)c2)cc1OC` [dimethoxycurcumin], for which, in series [5], the “reducing proliferation and stimulating apoptosis, compared to curcumin” value was “more effective”.
